From patent publication US20250213744A1, “ANTIMICROBIAL HYDROGEL COMPOSITION” (priority 2022, published 2025)
Values joined by “and” are separate entries in the source; they are usually repeats but may differ in a detail not shown here. Equal entries are not always repeated. “Also recorded” adds a separate entry of the source.

Key:
[1] = test system: P. aeruginosa (PAO1); assay: Modified Kirby-Bauer test, zone of inhibition; format: cell-based, Pseudomonas aeruginosa; conditions: for Ratio of bacterial zone of inhibition following application of plasma jet to antimicrobial loaded gel over non-plasma activated gel: antimicrobial loaded PAA/PVA composite gel
Source text: (§1) The Ar-CAP jet shown in FIG. 14 consisted of an internal steel needle electrode (outer diameter=0.9 mm, inner diameter=0.6 mm, length 51 mm) sealed inside a quartz tube (inner diameter=1.5 mm, outer diameter=3 mm). Two external copper electrodes of length 4 mm 5.6 cm from electrode, spaced 5.4 cm apart and 6.6 cm from the bottom of the tube. Ar gas was kept at 1.0 standard litres per minute (SLPM) and generated at 10 kV at 23.5 kHz. Voltage and current waveforms were monitored using oscilloscope. The gap distance was 1.5 cm and the Ar-CAP jet was stationary unless otherwise stated. 31
(§2) Bacterial overnight was made as outlined, subcultures were made in fresh MH broth absorbance corrected to OD 0.5 (˜[…] CFU/mL). 100 μL was added to Muller-Hinton agar to and spread to create a bacterial lawn. Gel discs were placed in the centre of the plate and either treated with Ar-CAP or left untreated. Plates were incubated at 37° C. for 18 h, facing up to prevent the gel from moving. Zone of inhibition (ZOI) was measured and corrected to the diameter of the gel.
(§3) The Kirby-Bauer (KB) test is a standard test used to assess the susceptibility of bacteria to different antimicrobials by measuring the zone of bacterial growth inhibition (ZOI) due to the out diffusion of the antimicrobial agent from a sterile disc soaked in that compound. In this case, a modified form of the KB test was performed. Plasma activate antimicrobial loaded, composite hydrogels were compared to non-activated antimicrobial loaded, composite hydrogels and non-loaded, composite hydrogels with and without plasma activation.

[2] = test system: S. aureus (H560); assay: Modified Kirby-Bauer test, zone of inhibition; format: cell-based, Staphylococcus aureus; conditions: for Ratio of bacterial zone of inhibition following application of plasma jet to antimicrobial loaded gel over non-plasma activated gel: antimicrobial loaded PAA/PVA composite gel
Source text: as §1, §2, §3

[3] = test system: E. faecalis (JH2-2); assay: Modified Kirby-Bauer test, zone of inhibition; format: cell-based, Enterococcus faecalis; conditions: for Ratio of bacterial zone of inhibition following application of plasma jet to antimicrobial loaded gel over non-plasma activated gel: antimicrobial loaded PAA/PVA composite gel
Source text: as §1, §2, §3

[4] = Passive leaching of antimicrobial from PAA composite gel, judged qualitatively from ZOI data; conditions: without CAP; judged from ZOI and ZOI ratios
Source text: The variation in bacterial susceptibility to the plasma jet applied to the unloaded gel is interesting and is thought to related to the varying susceptibility of different species to the RONS generated by the CAP. Sensitivity to different antimicrobials varied as a function of both the antimicrobial moiety and the bacterial species. In this case, P. aeruginosa is seen to be sensitive to Ag^+ passively leaching from the composite gel, while S. aureus and E. faecalis are not.
Relative passive leaching of different antimicrobials can be qualitatively assessed by looking at FIG. 5-7. The difficulty in cross comparison of the different antimicrobial susceptibility of the bacterial species to the various antimicrobials tested. The key comparison here is to look at the ratio of ZOI of the antimicrobial loaded composite gel (1st column in graphs below) to the zone of inhibition for the same loaded gel following application of the CAP jet 2nd column).

[5] = Ninhydrin assay, gentamicin release from PAA/PVA composite hydrogel with and without Ar-CAP jet; format: physicochemical
Method: 0.1 g of the drug loaded PAA powder was mixed with dry PVA (5% (w/v)) to obtain a homogenous powder and then is dissolved at 95° C. for 1 h. 20 ml of the PAANaPA/PVA solution was then added to a […] diameter petri dish and spread evenly. The gels were placed into a −20° C. freezer until frozen and removed and defrosted at 25° C. this process was repeated twice more to enable cryo-crosslinking of the PVA.
The Ar-CAP jet shown in FIG. 14 consisted of an internal steel needle electrode (outer diameter=0.9 mm, inner diameter=0.6 mm, length 51 mm) sealed inside a quartz tube (inner diameter=1.5 mm, outer diameter=3 mm). […] Voltage and current waveforms were monitored using oscilloscope. […]
Aminoglycoside was made up in pH 7.4 assay buffer (39.1 mL 0.2 M sodium hydroxide solution was added to 50 mL 0.2 M monobasic potassium phosphate solution and made up to a final volume of 200 mL with DI H2O) to starting concentration of 1 mg/mL. […] 200 μL was aliquoted into a round bottom 96-well plate and the absorbance was read at 560 nm (Clariostar, Omega). […]
Gentamicin is an aminoglycoside antibiotic used both systemically and topically. […] Ninhydrin was used to quantify release of gentamicin both prior to CAP treatment (passive release) and following CAP treatment. […] The Ninhydrin assay was used to quantify release of gentamicin with (triggered release) and without CAP treatment (passive release).

[6] = two secondary amine groups; net positive charge at pH 7; cited from earlier work
[7] = test system: clinical strains of S. aureus; conditions: many clinical strains of S. aureus; cited from earlier work
[8] = test system: clinical strains of P. aeruginosa; conditions: many clinical strains of P. aeruginosa; cited from earlier work

| Compound | Ratio of bacterial zone of inhibition following application of plasma jet to antimicrobial loaded gel over non-plasma activated gel [1] | sensitivity to antimicrobial passively leaching from the composite gel ([1]; no CAP) | Ratio of bacterial zone of inhibition following application of plasma jet to antimicrobial loaded gel over non-plasma activated gel [2] | sensitivity to antimicrobial passively leaching from the composite gel ([2]; no CAP) | sensitivity to antimicrobial passively leaching from the composite gel ([3]; E. faecalis, no CAP) | Ratio of bacterial zone of inhibition following application of plasma jet to antimicrobial loaded gel over non-plasma activated gel ([3]; E. faecalis) | passive release / leaching from the PAA composite gel (qualitative) [4] | sensitivity of E. faecalis compared with P. aeruginosa and S. aureus ([3]; loaded composite gel) | gentamicin released from gel into the surrounding PBS (triggered release) ([5]; after two minutes treatment with Ar CAP jet) | gentamicin passively released from gel ([5]; without CAP treatment) | pka of secondary amine groups [6] | Minimal Inhibitory Concentration (MIC) [7] | Minimal Inhibitory Concentration (MIC) [8] |
| --- | --- | --- | --- | --- | --- | --- | --- | --- | --- | --- | --- | --- | --- |
| O=[N+]([O-])[O-].[Ag+] [Silver, Silver Nitrate] | 1.5 | sensitive | 7 | are not | are not | 6 | much greater degree of passive out-diffusion | – | – | – | – | – | – |
| Cetrimide | 2.7 | – | 1.8 | – | – | 1.3 | much greater degree of passive out-diffusion | less sensitive | – | – | – | – | – |
| Polymyxin B | 13 | – | 34 | – | – | >30 | relatively no passive release; also recorded: little passive leaching | – | – | – | – | – | – |
| gentamicin | 3.6 | – | 8.2 | – | – | >10 | little passive leaching | – | 61 mg/mL | 1.1 mg/mL | 8.8 and 9.9 | 2000 to 4000 µg/mL | 2000 to 4000 µg/mL |
